Measurements: ChEMBL document CHEMBL4842309, “(9βH)- and 17-Nor-Pimaranes from Icacina oliviformis” (J Nat Prod, 2021)
Active and inactive are the calls of the source. The rule behind the calls is not given here.

Assays:
Assay type in all cases: functional, cell-based
MDA-MB-435 = test: Cytotoxicity against human MDA-MB-435 cells assessed as inhibition of cell proliferation measured after 72 hrs by CellTiter 96 AQueous One Solution Cell Proliferation assay; conditions: for IC50: MDA-MB-435, 72 h
MDA-MB-231 = test: Cytotoxicity against human MDA-MB-231 cells assessed as inhibition of cell proliferation measured after 72 hrs by CellTiter 96 AQueous One Solution Cell Proliferation assay; conditions: for IC50: MDA-MB-231, 72 h
OVCAR-3 = test: Cytotoxicity against human OVCAR-3 cells assessed as inhibition of cell proliferation measured after 72 hrs by CellTiter 96 AQueous One Solution Cell Proliferation assay; conditions: for IC50: OVCAR-3, 72 h
HT-29 = test: Cytotoxicity against human HT-29 cells measured after 72 hrs by CellTiter 96 AQueous One Solution Cell Proliferation assay; conditions: HT-29, 72 h
A2780 = test: Cytotoxicity against human A2780 cells assessed as reduction in cell viability incubated for 72 hrs by MTT assay; conditions: A2780, 72 h
HL-60 = test: Cytotoxicity against human HL-60 cells assessed as reduction in cell viability incubated for 72 hrs by MTT assay; conditions: HL-60, 72 h
PC-3 = test: Cytotoxicity against human PC-3 cells assessed as reduction in cell viability incubated for 72 hrs by MTT assay; conditions: PC-3, 72 h
HepG2 = test: Cytotoxicity against human HepG2 cells assessed as reduction in cell viability incubated for 72 hrs by MTT assay; conditions: HepG2, 72 h
SF-295 = test: Cytotoxicity against human SF-295 cells assessed as reduction in cell viability incubated for 72 hrs by MTT assay; conditions: SF-295, 72 h
HCT-116 = test: Cytotoxicity against human HCT-116 cells assessed as reduction in cell viability incubated for 72 hrs by MTT assay; conditions: HCT-116, 72 h

C[C@@]1([C@H](O)CO)CC[C@@H]2C(=C[C@H]3OC(=O)[C@@]4(C)CCC[C@@]2(C)[C@@H]34)C1
Activity (MDA-MB-435): inactive
Activity (MDA-MB-231): inactive
Activity (OVCAR-3): inactive

C[C@@]12CC[C@@H]3C(=C[C@H]4OC(=O)[C@]5(C)[C@H]4[C@]34CC[C@@]5(O)OC4)[C@]1(O)OC[C@H]2O
IC50 (MDA-MB-435): 2.8 µM
IC50 (MDA-MB-231): 3.4 µM
IC50 (OVCAR-3): 5.6 µM
IC50 (HT-29): 4.2 µM
IC50 (A2780): 1.7 µM

COc1cc2c(c3occc13)C[C@@H](O)[C@@H]1[C@]23CC[C@@H](O[C@@H]2O[C@H](CO)[C@@H](O)[C@H](O)[C@H]2O)[C@@]1(C)C(=O)OC3
Activity (MDA-MB-435): inactive
Activity (MDA-MB-231): inactive
Activity (OVCAR-3): inactive

COc1cc2c(c3occc13)C[C@H]1OC(=O)[C@]3(C)[C@H]1[C@@]21CO[C@]3(O)[C@@H](O[C@@H]2O[C@H](CO)[C@@H](O)[C@H](O)[C@H]2O)C1
Activity (MDA-MB-435): inactive
Activity (MDA-MB-231): inactive
Activity (OVCAR-3): inactive

C[C@@]1(C(=O)CO)CC[C@@H]2C(=C[C@H]3OC(=O)[C@]4(C)[C@H]3[C@]23CC[C@@]4(O)OC3)C1
IC50 (MDA-MB-435): 2.3 µM
IC50 (MDA-MB-231): 2.7 µM
IC50 (OVCAR-3): 4.4 µM
IC50 (A2780): 3.9 µM
IC50 (HL-60): 2.1 µM
IC50 (PC-3): 3.6 µM
IC50 (HepG2): 5.7 µM
IC50 (SF-295): 2.2 µM
IC50 (HCT-116): 1.7 µM

CO[C@@]12OC[C@@H](O)[C@]1(C)CC[C@@H]1C2=C[C@H]2OC(=O)[C@]3(C)[C@H]2[C@]12CC[C@@]3(O)OC2
IC50 (MDA-MB-435): 3.6 µM
IC50 (MDA-MB-231): 4 µM
IC50 (OVCAR-3): 6.3 µM
